Experimental data taken from patent US12303498B2, “ALK5 inhibitors as skeletal muscle hypertrophy inducers” (CYTOO, priority 2018, dated 2025).
Where two headings read alike, the source gives them in different places. Each block holds one compound with its values, some of them ahead of it.

Columns and labels:
[1] = test system: Human primary myoblasts (healthy donors 3, 1 and 5); experiment: MyoScreen hypertrophy assay on myotubes from healthy donors; type: cell-based; conditions: for EC50 / activity at 10 µM: Homo sapiens, Myoblast
Description: (§1) Healthy donor primary skeletal cells (Donor 1, Donor 3 and Donor 5) were Clonetics™ Human Skeletal Muscle Myoblasts (HSMM). In addition, cells from three DMD (Duchenne muscular dystrophy) donors (Donor Z, W and D1) and from a healthy donor (Donor A) were sourced.
(§2) Hypertrophy and Atrophy Rescue assays were performed using an in vitro fully automated human myotube model called MyoScreen™ (Cytoo, France). This model relies on a tight control of the microenvironment that guides the differentiation of human primary myoblasts. Myotubes formed on MyoScreen™ micropatterns present a high level of maturation together with a highly standardized morphology.
(§3) Human primary myoblasts from donors were seeded in MyoScreen™ micropatterned 96-well plates (Cytoo, France), let them adhere for 24 h in growth medium, then run the differentiation in a low horse serum medium for at least 5 days.
(§4) At Day 0, MyoScreen™ plates (Cytoo, France) containing micropatterns were pre-filled with 200 μl/well of growth medium and stored in the incubator at 37° C. Human primary myoblasts were detached from the flasks, count, and seeded into the plates with 15 000 cells per well in 100 μl of growth medium.
(§5) At Day 1, the growth medium was changed for a differentiation medium, 300 μl/well (DMEM with 0.1% horse serum) in which myoblasts started differentiating and forming myotubes.
(§6) At Day 2, the differentiation medium was changed. Then candidate compounds were diluted with differentiation medium and transferred into the plate. The final concentration of DMSO should be not higher than 0.1%. At least 6 wells were treated with the vehicle as a basal control, and 6 wells were treated with IGF-1 at 100 ng/ml as positive hypertrophy control.
(§7) At Day 6, cells were fixed with formalin 5% for 30 min at room temperature, then permeabilized with Triton X-100 at 0.1% in PBS for 15 min, and blocked with PBS+BSA 1% for 20 minutes. Myotubes were incubated with first antibody against Troponin T in blocking buffer for 1 h30, washed three times with PBS, incubated with secondary antibody and Hoescht ( 1/10000) for 1 h30, and washed three times with PBS.
(§8) Images were acquired at 10× magnification with an Operetta High Content Imaging System. Image processing and analysis were performed with dedicated algorithms developed on the Acapella High Content Imaging Software (Perkin Elmer) by CYTOO. Eleven fields per well were acquired.
First, segmentation of myotubes and nuclei were done using respectively the Troponin T staining intensity and the Hoechst staining. […] The threshold of segmentation was set-up in order to avoid detecting the background noise and eliminate aberrant small myotube structures.
(§9) Then, an image clean-up step was performed on the Troponin T images in order to remove myotubes that touch the border of the image. The final valid myotubes were used to extract myotube morphology parameters including the myotube width and area, and the number of nuclei per myotube.
Nuclei Count, Fusion Index, Mean myotube Area and Number of nuclei per myotube have been validated as relevant and sensitive readouts of myotube differentiation as well as atrophic and hypertrophic induction.
A primary screening was run to identify hypertrophy compounds that increase the myotube differentiation and size. Candidate compounds were tested at 10 μM in monoplicate on Donor 3 cells.
A retest was run, by cherry picking (same compound batch as primary screening): each hit was tested in the same conditions as in the Primary Screening (Donor 3, 10 μM) in six well replicates.

[2] = test system: cells from DMD donors (Donor Z, W and D1); experiment: MyoScreen hypertrophy assay on myotubes from DMD donors; type: cell-based, human; conditions: fusion index (compound)*100/basal control; for Donor W (% Activity): DMD Donor W; for Donor Z (% Activity): DMD Donor Z; for Donor D1 (% Activity): DMD Donor D1
Description: as §1, §2, §3, §4, §5, §6, §7, §8
(§10) First, segmentation of myotubes and nuclei were done using respectively the Troponin T staining intensity and the Hoechst staining. One to two myotubes per micropattern were usually identified (a myotube is a troponin T staining area that includes at least 2 nuclei). The threshold of segmentation was set-up in order to avoid detecting the background noise and eliminate aberrant small myotube structures. At the end of this first step, specific readouts were calculated in the whole well, like the nuclei count and the fusion index (percentage of nuclei included in troponin T staining) Usually around 50 to 60 myotubes were detected per well in a control condition.
as §9

[3] = test system: Donor Z (DMD donor) myotubes; experiment: Hypertrophy assay, combinations ALK5 inhibitor and glucocorticoid; type: cell-based, human; conditions: 4 days of treatment, prednisolone 10 nM, RepSox or GW788388 300 nM, alone or combined
[4] = test system: AChR clusters in MyoScreen myotubes; experiment: Acetylcholine receptor clustering assay; type: cell-based, human; conditions: 8 days of differentiation including 7 days of drug treatment; for total AChR area increase: vs control myotubes
Description: The MyoScreen™ protocol was performed as described in the Hypertrophy and Atrophy rescue assay described in Example 1 but was stopped at Day 9 instead of Day 6. At the end of the assay, AchR were immunostained using a specific antibody in addition to Troponin T and nuclei. Images were acquired at ×20 with an Operetta High Content Imaging System from Perkin Elmer. Image processing and analyses were performed with a dedicated algorithm developed on the Acapella High Content Imaging Software (Perkin Elmer). Specific readouts were calculated in each well: nuclei count and myotube fusion index, number of AchR, AchR mean area, AchR total area normalized by the myotube total area.
Remarkably, when labeled with a specific anti-AChR antibody, MyoScreen myotubes at 6 days post-differentiation display AChR clusters punctuated along the sarcolemma membrane in the middle of the myotube fibre and in distinct regions at the ends of myotubes. To develop an automated AChR cluster assay, an AChR detection routine was developed that was sensitive and robust enough to analyze aggregate number and size clusters in images using the Operetta/Acapella system.

ACh-stimulated myotubes = experiment: Calcium flux assay after ACh stimulation; type: cell-based, human; conditions: for increase in [Ca2+]i peak amplitude compared to control myotubes: 20 μM ACh stimulation, myotubes differentiated 8 days, 7 days with compound
Description: Cells were then incubated for 1 h with 2 μM Fluo-4 AM (F14201-Invitrogen) in an incubator (37° C., 5% CO2). After washing to remove unloaded dye, myotube responses to 20 μM ACh (A6625-Sigma-Aldrich), were videoimaged. Stream acquisitions were set at 1 sec intervals and one field of view was acquired per well. Images were processed and analyzed automatically using a dedicated software developed in-house integrating the open-source ImageJ framework. The image analysis tool segments the myotubes in images acquired in the same well. The Fluo-4 total fluorescence intensity was measured inside each myotube and corrected for background. The total intensity was normalized to the myotube area to obtain the mean fluorescence intensity readout.

[5] = test system: Myotubes from Donors 5 and A
Source text: Cells were washed with calcium buffer containing (in mM): 130 NaCl, 5.4 KCl, 1.8 CaCl2, 0.8 MgCl2, 5.6 D-glucose, 10 Hepes, pH 7.4. […] After washing to remove unloaded dye, myotube responses to electrical stimulation pulses were monitored using the FDSS/μCELL/EFS from Hamamatsu Photonics. Twitch stimulations were run at 0.2 Hz with pulse width 50 ms 5V for 60 seconds. Tetanus stimulation was run at 30 Hz with pulse width 15 ms 3V for 20 seconds. The Fluo-4 total fluorescence intensity is measured in each well. For data presentation, fluorescence intensities (F) were normalized to the mean intensity of the first timepoints (F/F0).

[6] = test system: Myotubes from the healthy donor 3 atrophied by TNF-α, IL-1β, Myostatin, TGF-β or dexamethasone; experiment: Atrophy rescue assay (MyoScreen); type: cell-based, human; design: key: +++: total rescue; ++: partial rescue; +: low rescue; conditions: for atrophy rescue, IL-1: atrophy inducer IL-1β 25 ng/mL; for atrophy rescue, TGF-β: atrophy inducer TGF-β 0.5 ng/mL; for atrophy rescue, TNF-alpha: atrophy inducer TNF-α 2 ng/mL; for atrophy rescue, dexamethasone: atrophy inducer dexamethasone 100 μM; for atrophy rescue, Myostatin: atrophy inducer myostatin 150 ng/mL
Description: as §2, §3, §4, §5, §6
For Atrophy Rescue assay, one hour after candidate compound addition, atrophy inducers were added at the following final concentration: 150 ng/mL of myostatin, 25 ng/mL of IL-1β, 2 ng/mL of TNF-α, 0.5 ng/mL of TGF-β and 100 μM of dexamethasone.
as §7, §8, §10, §9
Atrophy Rescue assays were performed in triplicate in the presence of atrophy inducers, i.e. TNF-α, IL-1β, Myostatin, TGF-β and dexamethasone.
Atrophy rescue assays was performed for RepSox. Myotubes from the healthy donor 3 were atrophied using different inducers: TNF-α, IL-1β, Myostatin, TGF-β and dexamethasone.

[7] = test system: myotubes stimulated with 100 μM ACh; experiment: Contractile activity assay; type: cell-based, human; conditions: 5 days of differentiation including 4 days (96 h) treatment, RepSox 2 μM
Description: Cells were washed with calcium buffer as above. Myotube contraction was induced by addition of 100 μM ACh for 3 mins after which myotubes were fixed and immunostained with troponin T antibody. Automated acquisition was performed on the Operetta platform with a x10/0.3 NA objective. Detaching myotubes were automatically detected and quantified using Acapella, based on the detection of high intensity regions within the edges of segmented myotubes that mark the spots where the myotubes detached.

[8] = second dose response assay, healthy Donor 3, read-out: EC50
[9] = second dose response assay, healthy Donor 3
[10] = first dose response assay, healthy Donor 1
[11] = first dose response assay, healthy Donor 3
[12] = first dose response assay, healthy Donor 5

Compound: Cc1cccc(-c2nn(C(=S)Nc3ccccc3)cc2-c2ccnc3ccccc23)n1 [A 83-01]
EC50 [1, 8]: 10 nM | % Activity [1, 9]: 127%

Compound: NC(=O)c1ccc(-c2nc(-c3ccccn3)c(-c3ccc4c(c3)OCCO4)[nH]2)cc1 [D 4476]
EC50 [1, 8]: < 1 nM | % Activity [1, 9]: 128%

Compound: O=C(NC1CCOCC1)c1ccc(-c2cc(-c3c[nH]nc3-c3ccccn3)ccn2)cc1 [GW 788388]
Donor W (% Activity) [2]: 118% | Donor Z (% Activity) [2]: 196% | EC50 [1, 8]: 88 nM | % Activity [1, 9]: 130%

Compound: c1ccc(-c2n[nH]cc2-c2ccnc3ccccc23)nc1 [LY 364947]
EC50 [1, 8]: 25 nM

Compound: C[C@]12C=CC(=O)C=C1CC[C@@H]1[C@@H]2[C@@H](O)C[C@@]2(C)[C@H]1CC[C@]2(O)C(=O)CO [Prednisolone, prednisolone]
increase in Fusion index [3]: 25% | increase in Myotube mean area [3]: does not enhance significantly

Compound: Cc1cccc(-c2n[nH]cc2-c2ccc(F)c(-c3cnn(CCO)c3)c2)n1 [R268712]
EC50 [1, 8]: 1 nM | % Activity [1, 9]: 132%

Compound: Cc1cccc(-c2n[nH]cc2-c2ccc3ncccc3n2)n1 [RepSox]
AChR clusters [4]: substantially more AChR clusters | total AChR area increase [4]: 6 fold | increase in Fusion index [3]: 100% | increase in Myotube mean area [3]: 68% | Donor D1 (% Activity) [2]: 210% | Donor W (% Activity) [2]: 120% | Donor Z (% Activity) [2]: 176% | activity in dose responses on three healthy donors ([1]; Donors 3, 5 and 1): active on all donors | EC50 ([1]; first dose response assay, healthy Donor 1, read-out: Donor 1 EC50): 560 nM | EC50 ([1]; first dose response assay, healthy Donor 3, read-out: Donor 3 EC50): 5 nM | EC50 ([1]; first dose response assay, healthy Donor 5, read-out: Donor 5 EC50): 2.5 nM | activity at 10 µM ([1]; healthy Donor 3, 10 μM, monoplicate (IGF-1 100 ng/ml), % Activity = Myotube fusion index (compound)*100/Myotube Fusion index (basal control), read-out: Primary screening (% Activity)): 183% | activity at 10 µM ([1]; healthy Donor 3, 10 μM, six well replicates (IGF-1 100 ng/ml), fusion index vs basal control, read-out: Retest (% Activity)): 171% | EC50 [1, 8]: 5 nM | Donor 1 % Activity [1, 10]: 143% | Donor 3 % Activity [1, 11]: 140% | Donor 5 % Activity [1, 12]: 204% | increase in the fusion index or/and myotube area readouts ([1]; primary screening and retest, Donor 3, 10 μM): > 170% | % Activity [1, 9]: 140% | increase in [Ca2+]i peak amplitude compared to control myotubes (ACh-stimulated myotubes): 1.56 fold | number of retracting myotubes after ACh stimulation (ACh-stimulated myotubes; calcium flux time-lapse videos): marked increase | tetanus response ([5]; Donor 5 myotubes, RepSox 3 to 500 nM, tetanus stimulation 30 Hz, vs Control myotubes): increases with RepSox concentrations | calcium peak amplitude on repeated twitch electrical stimulations ([5]; Donor A and Donor 5 myotubes, RepSox 300 nM for 5 days, twitch 0.2 Hz): twice higher | atrophy rescue, IL-1 [6]: ++ | atrophy rescue, TGF-β [6]: +++ | atrophy rescue, TNF-alpha [6]: ++ | atrophy rescue, dexamethasone [6]: +++ | atrophy rescue, Myostatin [6]: +++

Compound: Cc1cccc(-c2[nH]c(C(C)(C)C)nc2-c2ccc3c(c2)OCO3)n1 [SB 505124]
EC50 [1, 8]: < 1 nM | % Activity [1, 9]: 136%

Compound: Cc1cccc(-c2nc(C(C)(C)C)[nH]c2-c2ccc3nccnc3c2)n1 [SB 525334]
EC50 [1, 8]: 3 nM | % Activity [1, 9]: 142%

Compound: Fc1ccc(Cl)cc1-c1nc(Nc2ccncc2)c2nccnc2n1 [SD208]
EC50 [1, 8]: 65 nM | % Activity [1, 9]: 138%

total AChR area increase [4]: no effect
Compound: IGF-1: IGF-1 at 100 ng/ml as positive hypertrophy control
increase in Fusion index [3]: 160% | increase in Myotube mean area [3]: 54% | Donor D1 (% Activity) [2]: 163% | Donor W (% Activity) [2]: 100% | Donor Z (% Activity) [2]: 143% | Donor 1 % Activity [1, 10]: 150% | Donor 3 % Activity [1, 11]: 178% | Donor 5 % Activity [1, 12]: 185% | Primary screening (% Activity) ([1]; healthy Donor 3, 10 μM, monoplicate (IGF-1 100 ng/ml), % Activity = Myotube fusion index (compound)*100/Myotube Fusion index (basal control)): 210% | Retest (% Activity) ([1]; healthy Donor 3, 10 μM, six well replicates (IGF-1 100 ng/ml), fusion index vs basal control): 190% | % Activity [1, 9]: 178% | increase in [Ca2+]i peak amplitude compared to control myotubes (ACh-stimulated myotubes): no effect | atrophy rescue, IL-1 [6]: +++ | atrophy rescue, TGF-β [6]: ++ | atrophy rescue, TNF-alpha [6]: +++ | atrophy rescue, dexamethasone [6]: +++ | atrophy rescue, Myostatin [6]: +++ | active contractile force (percentage of myotubes that exhibit strong contractions) [7]: 67±5%
